US6344562B1, “Thiazole derivatives” (Hoffmann-La Roche Inc., priority 1998, dated 2002)
Where a name gives a salt, the structure may show the parent alone.

Molecule `O=C(O)C(F)(F)F.O=C(O)C[C@H](NC(=O)CCCc1csc(NC(=O)NCc2ccccc2)n1)C(=O)NCc1ccccc1` has a melting point of 159 °C.
Molecule `Cl.Cl.O=C(O)CC(NC(=O)CNC(=O)c1csc(N=C2NCCN2)n1)c1cccnc1` (centres unmarked) has a melting point of 170 to 172 °C.
With `Cc1nc(NC(=N)N)sc1C(=O)NCCC(=O)NCCC(=O)O.Cl.Cl` the melting point was 170 °C.
`O=C(O)CCNC(=O)CNC(=O)c1csc(NC(=O)NCc2ccccc2)n1` (as salt: hydrochloride) [Example 132, 3-[2-[[2-(3-benzyl-ureido)-thiazole-4-carbonyl]-amino]-acetylamino]-propionic acid] gave a melting point of 174 °C.
In the case of `O=C(O)CCCC(=O)CNC(=O)c1csc(NC(=O)NCc2ccccn2)n1` (as salt: hydrochloride) [Example 150, 5-oxo-6-{[2-(3-pyridin-2-ylmethyl-ureido)-thiazole-4-carbonyl]-amino}-hexanoic acid], the melting point was 199 °C.
For `CC(C)(C)OC(=O)C[C@H](NC(=O)CNC(=O)c1csc(NC(=O)NCc2ccccc2)n1)C(=O)OC(C)(C)C` (as salt: succinate) [Example 157, di-tert-butyl (S)-2-(2-{[2-(3-benzyl-ureido)-thiazole-4-carbonyl]-amino}-acetylamino)-succinate], the melting point was 111 to 114 °C.
Molecule `O=C(O)C[C@H](NC(=O)CNC(=O)c1csc(NC(=O)NCc2ccccc2)n1)C(=O)NCc1ccccc1` (as salt: trifluoroacetate) [Example 130, (S)-N-benzyl-3-[2-[[2-(3-benzyl-ureido)-thiazole-4-carbonyl]-amino]-acetylamino]-succinamic acid] has a melting point of 193 °C.
`CC(C)[C@H](NC(=O)[C@H](CC(=O)O)NC(=O)CNC(=O)c1csc(NC(=O)NCc2ccccc2)n1)C(=O)O` (as salt: trifluoroacetate) [Example 142, (S)-2-[(S)-2-(2-{[2-(3-benzyl-ureido)-thiazole-4-carbonyl]-amino}-acetylamino)-3-carboxy-propionylamino]-3-methyl-butyric acid] gave a melting point of 93 to 98 °C.
Molecule `O=C(O)C[C@H](NC(=O)CNC(=O)c1csc(NC(=O)NCc2ccccc2)n1)C(=O)N[C@H](C(=O)O)c1ccccc1` (as salt: trifluoroacetate) [Example 144, (S)-3-[2-[[2-(3-benzyl-ureido)-thiazole-4-carbonyl]-amino]-acetyl-amino]-N-[(S)-carboxy-phenyl-methyl)-succinamic acid] has a melting point of 126 to 130 °C.
`O=C(O)C[C@H](NC(=O)CNC(=O)c1csc(NC(=O)NCc2ccccc2)n1)C(=O)O` (as salt: trifluoroacetate) [Example 158, (S)-2-(2-{[2-(3-benzyl-ureido)-thiazole-4-carbonyl]-amino}-acetylamino)-succinic acid] showed a melting point of 183 °C.
Work on `O=C(O)C[C@H](NC(=O)CNC(=O)c1csc(NC(=O)NCc2ccccc2)n1)C(=O)NCc1cccnc1` (as salt: trifluoroacetate) [Example 164, (S)-3-[2-[[2-(3-benzyl-ureido)-thiazole-4-carbonyl]-amino]-acetylamino]-N-pyridin-3-ylmethyl-succinamic acid] yielded a melting point of 135 °C.
Molecule `CC(=O)O.Cc1nc(N=C2NCCCN2)sc1C(=O)NCCCCC(CC(=O)O)c1ccccc1.Cl` (racemic) has a melting point of 60 to 63 °C.
`N=C(N)Nc1nc(C(=O)NCC(=O)NC(CC(=O)O)c2ccccc2)cs1` (racemic) (as salt: hydrochloride) [Example 23, rac-3-[2-[(2-guanidino-thiazole-4-carbonyl)-amino]-acetylamino]-3-phenyl-propionic acid] showed a melting point of 202 to 205 °C.
`CCc1nc(NC(=N)N)sc1-c1cccc(NC(=O)CC(CC(=O)O)c2ccccc2)c1` (racemic) (as salt: salt) [Example 91, rac-4-[3-(4-ethyl-2-guanidino-thiazol-5-yl)-phenylcarbamoyl]-3-phenyl-butyric acid] showed a melting point of 186 to 188 °C.
`CCOC(=O)CC(CC(=O)CNC(=O)c1csc(NC(=O)NCc2ccccc2)n1)C(=O)OCC` (racemic) (as salt: succinate) [Example 155, diethyl rac-2-[3-[[2-(3-benzyl-ureido)-thiazole-4-carbonyl]-amino]-2-oxo-propyl]-succinate] showed a melting point of 126 to 129 °C.
Molecule `CCOC(=O)CC(NC(=O)c1cccc(NC(=O)c2sc(NC(=N)N)nc2C)c1)c1ccccc1` (racemic) [Example 10, ethyl rac-3-[3-[(2-guanidino-4-methyl-thiazole-5-carbonyl)-amino]-benzoylamino]-3-phenyl-propionate] has a melting point of 177 °C.
`CCOC(=O)CC(CCCNC(=O)c1csc(NC(=O)NCc2ccccc2)n1)c1ccccc1` (racemic) [Example 14, ethyl (RS)-6-{[2-(3-benzyl-ureido)-thiazole-4-carbonyl]-amino}-3-phenyl-hexanoate] gave a melting point of 93 °C.
For `N=C(N)Nc1nc(C(=O)NCCCC(CC(=O)O)c2ccccc2)cs1` (racemic) [Example 17, (RS)-6-[(2-guanidino-thiazole-4-carbonyl)-amino]-3-phenyl-hexanoic acid], the melting point was 230 °C.
Work on `CCOC(=O)CC(NC(=O)c1cccc(NC(=O)c2csc(NC(=N)N)n2)c1)c1ccccc1` (racemic) [Example 18, ethyl (RS)-3-[3-[(2-guanidino-thiazole-4-carbonyl)-amino]-benzoylamino]-3-phenyl-propionate] yielded a melting point of 117 °C.
With `N=C(N)Nc1nc(C(=O)Nc2cccc(C(=O)NC(CC(=O)O)c3ccccc3)c2)cs1` (racemic) [Example 19, (RS)-3-{3-[(2-guanidino-thiazole-4-carbonyl)-amino]-benzoylamino}-3-phenyl-propionic acid] the melting point was 235 °C.
For `CCOC(=O)CC(NC(=O)CNC(=O)c1csc(NC(=N)N)n1)c1ccccc1` (racemic) [Example 22, ethyl rac-3-[2-[(2-guanidino-thiazole-4-carbonyl)-amino]-acetylamino]-3-phenyl-propionate], the melting point was 177 to 178 °C (dec.).
Molecule `CCOC(=O)CC(NC(=O)CCNC(=O)c1csc(NC(=N)N)n1)c1ccccc1` (racemic) [Example 24, ethyl rac-3-[3-[(2-guanidino-thiazole-4-carbonyl)-amino]-propionylamino]-3-phenyl-propionate] has a melting point of 85 to 87 °C.
For `N=C(N)Nc1nc(C(=O)NCCC(=O)NC(CC(=O)O)c2ccccc2)cs1` (racemic) [Example 25, rac-3-[3-[(2-guanidino-thiazole-4-carbonyl)-amino]-propionylamino]-3-phenyl-propionic acid], the melting point was 105 to 107 °C (dec.).
With `CCOC(=O)CC(NC(=O)CCNC(=O)c1sc(NC(=N)N)nc1C)c1ccccc1` (racemic) [Example 26, ethyl rac-3-[3-[(2-guanidino-4-methyl-thiazole-5-carbonyl)-amino]-propionylamino]-3-phenyl-propionate] the melting point was 106 to 107 °C.
Work on `CCOC(=O)CC(NC(=O)c1cccc(NC(=O)c2cnc(NC(=N)N)s2)c1)c1ccccc1` (racemic) [Example 72, ethyl (RS)-3-{3-[(2-guanidino-thiazole-5-carbonyl)-amino]-benzoylamino}-3-phenyl-propionate] yielded a melting point of 149 °C.
With `N=C(N)Nc1ncc(C(=O)Nc2cccc(C(=O)NC(CC(=O)O)c3ccccc3)c2)s1` (racemic) [Example 73, (RS)-3-[3-[(2-guanidino-thiazole-5-carbonyl)-amino]-benzoylamino]-3-phenyl-propionic acid] the melting point was 196 °C.
In the case of `CCOC(=O)CC(NC(=O)c1cc(NC(=O)c2sc(NC(=N)N)nc2C)cc(OCc2ccccc2)c1)c1ccccc1` (racemic) [Example 74, ethyl (RS)-3-{3-benzyloxy-5-[(2-guanidino-4-methyl-thiazole-5-carbonyl)-amino]-benzoylamino}-3-phenyl-propionate], the melting point was 116 °C.
`CCOC(=O)CC(NC(=O)c1ccc(OC)c(NC(=O)c2sc(NC(=N)N)nc2C)c1)c1ccccc1` (racemic) [Example 78, ethyl (RS)-3-{3-[(2-guanidino-4-methyl-thiazole-5-carbonyl)-amino]-4-methoxy-benzoylamino}-3-phenyl-propionate] showed a melting point of 123 to 126 °C.
In the case of `N=C(N)Nc1nc(C(=O)NCC(=O)NC(CC(=O)O)c2cccnc2)cs1` (racemic) [Example 81, (RS)-3-{2-[(2-guanidino-thiazole-4-carbonyl)-amino]-acetylamino}-3-pyridin-3-yl-propionic acid], the melting point was 186 °C.
In the case of `CCOC(=O)CC(CCCCNC(=O)c1sc(NC(=N)N)nc1C)c1ccccc1` (racemic) [Example 84, ethyl (RS)-7-[(2-guanidino-4-methyl-thiazole-5-carbonyl)-amino]-3-phenyl-heptanoate], the melting point was 138 °C.
For `Cc1nc(NC(=N)N)sc1C(=O)NCCCCC(CC(=O)O)c1ccccc1` (racemic) [Example 85, (RS)-7-[(2-guanidino-4-methyl-thiazole-5-carbonyl)-amino]-3-phenyl-heptanoic acid], the melting point was 125 °C.
With `CCCc1nc(NC(=N)N)sc1-c1cccc(NC(=O)CC(CC(=O)O)c2ccccc2)c1` (racemic) [Example 92, rac-4-[3-(2-guanidino-4-propyl-thiazol-5-yl)-phenylcarbamoyl]-3-phenyl-butyric acid] the melting point was 245 to 247 °C (dec.).
With `CCCCCc1nc(NC(=N)N)sc1-c1cccc(NC(=O)CC(CC(=O)O)c2ccccc2)c1` (racemic) [Example 94, rac-4-[3-(2-guanidino-4-pentyl-thiazol-5-yl)-phenylcarbamoyl]-3-phenyl-butyric acid] the melting point was 186 to 188 °C (dec.).
With `CCOC(=O)CC(CCCNC(=O)c1csc(NC(=O)NCc2ccccc2)n1)C(=O)NCc1ccccc1` (racemic) [Example 147, ethyl rac-3-benzylcarbamoyl-6-{[2-(3-benzyl-ureido)-thiazole-4-carbonyl]-amino}-hexanoate] the melting point was 128 °C.
In the case of `CCOC(=O)CC(NC(=O)CNC(=O)c1csc(N=C2NCCN2)n1)c1cccnc1` (racemic) [Example 171, ethyl (RS)-3-(2-{[2-(imidazolidin-2-ylidenamino)-thiazole-4-carbonyl]-amino}-acetylamino)-3-pyridin-3-yl-propionate], the melting point was 198 to 199 °C.
